{"source": "paper PMC11018795", "about": "“The regulatory relationship between NAMPT and PD-L1 in cancer and identification of a dual-targeting inhibitor” (EMBO Molecular Medicine, 2024)", "key": {"[1]": {"tested_on": "A2780 cells", "assay": "Apoptosis assay (Annexin V/PI), A2780", "type": "cell-based, human", "method": "(§1) The cells are treated with the compounds. After 48–72 h, the cells were harvested and washed twice with cold PBS. The cells were then stained with Annexin V/propidium iodide (PI) (BD Biosciences) and examined using a NovoCyte Flow Cytometer (ACEA Biosciences). Data were analyzed using NovoExpress software (ACEA Biosciences)."}, "[2]": {"tested_on": "LLC OE NAMPT cells", "assay": "Cell viability 72 h, LLC OE NAMPT (Fig 4C)", "type": "cell-based, mouse", "method": "(§2) In vitro cell viability was determined using a Cell Counting Kit-8 (MCE) assay. Cells (5 × 10^3/well) were seeded in 96-well culture plates. After 24 h, they were incubated with various concentrations of the test compounds for 48–72 h at 37 °C in a 5% CO2 incubator. Next, 10% of the CCK-8 solution was added to each well, and the plates were incubated for an additional 4 h at 37 °C. The optical density of each well was measured at 450 nm using a multimode plate reader (Molecular Devices, San Jose, CA, USA). Cells (5 × 10^3/well) were seeded into a 96-well plate and cultured at 37 °C in a 5% CO2 incubator. […] At the final time point, 10 μl MTT solution (5 mg/ml, Sigma, Burlington, MA, USA) was added to each well and incubated for an additional 4 h at 37 °C in a 5% CO2 incubator. Then,100 μl of DMSO was added to each well and mixed thoroughly. Optical density was measured at 492 nm using a microplate reader (Molecular Devices, San Jose, CA, USA)."}, "[3]": {"molecular_target": "T1, PD-1/PD-L1 interaction (Homo sapiens, UniProt Q9NZQ7)", "T1 construct": "purchased Cisbio 64ICP01PEG", "T1 sequence (Q9NZQ7 19-238 limits assumed)": "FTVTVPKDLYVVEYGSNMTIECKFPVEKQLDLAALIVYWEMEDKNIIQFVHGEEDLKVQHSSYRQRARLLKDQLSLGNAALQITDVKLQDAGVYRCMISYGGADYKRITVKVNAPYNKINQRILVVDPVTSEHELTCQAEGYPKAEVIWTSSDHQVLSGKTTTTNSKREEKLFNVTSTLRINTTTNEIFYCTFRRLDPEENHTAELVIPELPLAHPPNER", "assay": "In vitro PD-1/PD-L1-binding assay (Cisbio kit)", "method": "The biochemical activity of the final compounds was evaluated using a PD-1/PD-L1 binding assay kit (Cisbio, cat. No. 64ICP01PEG). Experiments were performed according to the manufacturer’s instructions."}, "[4]": {"tested_on": "HCT-116 cells", "assay": "MTT assay 48 h, HCT-116", "type": "cell-based, human", "method": "Cells (5 × 10^3/well) were seeded into a 96-well plate and cultured at 37 °C in a 5% CO2 incubator. […] At the final time point, 10 μl MTT solution (5 mg/ml, Sigma, Burlington, MA, USA) was added to each well and incubated for an additional 4 h at 37 °C in a 5% CO2 incubator. Then,100 μl of DMSO was added to each well and mixed thoroughly. Optical density was measured at 492 nm using a microplate reader (Molecular Devices, San Jose, CA, USA)."}, "[5]": {"tested_on": "LLC cells", "assay": "Apoptosis assay (Annexin V/PI), LLC", "type": "cell-based, mouse", "method": "as §1"}, "[6]": {"tested_on": "NAD+ content of LLC OE NAMPT/PD-L1 tumor tissue", "assay": "NAD+ in tumor tissue, LLC OE NAMPT/PD-L1 mouse model", "type": "in vivo", "conditions": "20 mg/kg"}, "[7]": {"tested_on": "LLC Vector cells", "assay": "Cell viability 72 h, LLC Vector (Fig 4C)", "type": "cell-based, mouse", "method": "as §2"}, "[8]": {"tested_on": "HCT-116 cells", "assay": "Apoptosis assay (Annexin V/PI), HCT-116", "type": "cell-based, human", "conditions": "HCT116", "method": "as §1"}, "[9]": {"tested_on": "A2780, HCT-116, LLC, CT-26 cells co-cultured with T cells", "assay": "T-cell-mediated tumor cell killing assay, A2780, HCT-116, LLC, CT-26", "type": "cell-based, human, mouse", "conditions": "72 h co-culture", "method": "To acquire activated T cells, human peripheral blood mononuclear cells (PBMC; LTS1077, Yanjin Biological) were cultured in CTSTM AIIM VTM SFM (A3021002; Gibco) with ImmunoCult Human CD3/CD28/CD2 T-cell activator (25 µL/mL; […] Technologies, Cat#10970) for 48 h according to the manufacturer’s protocol. The experiments were performed using mouse anti-CD3 antibody (1 µg/mL; Thermo Scientific, 16-0032-82) and anti-CD28 antibody(5 µg/mL; Thermo Scientific, 16-0281-82). […] Different proportions of cancer cells and activated T cells were utilized according to the purpose of each experiment. The T-cell proliferation assay was 1:3; the T-cell killing assay was 1:10; T cells and cell debris were removed by PBS washing, and the living cancer cells were then quantified by a spectrometer at OD (570 nm) followed by crystal violet staining."}, "[10]": {"assay": "In vitro metabolic stability in human liver microsome", "type": "in vitro ADME", "method": "2) Pharmacokinetics: Human liver microsomal stability assay is widely adopted in the preliminary evaluation for pharmacokinetic properties, reflecting the potential metabolic stability of indicated compounds in the human body. Thus, considering the […]\nactivity of LZFPN-90, it was further evaluated for potential metabolism in human liver microsome. The intrinsic clearance for LZFPN-90 in human liver microsome is 0.035 mL/min/mg. According to the classical criteria (Low clearance: CLint < 0.01 mL/min/mg; medium clearance: 0.01 ≤ CLint ≤ 0.1 mL/min/mg; high clearance: CLint > […]\nindicating its potential for further development. […]\nTable 1. In Vitro Metabolic Stability of LZFPN-90 in Human Liver Microsome T1/2 CLint, in vitro Remaining\n(min)a (mL/min/mg)b (T = 60 min) […]\nb CLint: intrinsic clearance, CLint(mic)=0.693/T1/2/mg microsomal protein/mL\n(1 picture or pasted object on this page, not shown here)"}, "[11]": {"tested_on": "HCT-116 cells", "assay": "Cell cycle analysis, HCT-116", "type": "cell-based, human", "source_text": "Supplement 44321_2024_51_MOESM5_ESM.zip/Fig4-D.xlsx, sheet \"Sheet1\" | column: G0/G1; S; G2/M"}}, "note": "“And” between values parts separate entries of the source, which are not always exact repeats. Equal entries are not always repeated.", "data": [{"compound": "CCN(CC)CCCOc1cccc(-c2cccc3c2CCN3C(=O)c2ncc(CNC(=NC#N)Nc3ccncc3)s2)c1", "note": "[LZFPN-90]", "values": [{"measurement": "Apoptotic cells (sum of both Annexin-positive quadrants)", "setting": "[1]; LZ90 15 nM", "result": "5.88 and 5.86 and 5.93"}, {"measurement": "Apoptotic cells (sum of both Annexin-positive quadrants)", "setting": "[1]; LZ90 60 nM", "result": "12.2 and 12.06 and 12.87"}, {"measurement": "Apoptotic cells (sum of both Annexin-positive quadrants)", "setting": "[1]; LZ90 240 nM", "result": "48.53 and 48.13 and 46.72"}, {"measurement": "Relative viability", "setting": "[2]; head LLC OE NAMPT/PD-L1 (legend: LLC OE NAMPT), LZ90 0.25 (nM), 0 = 100", "result": "77.2963 and 85.357 and 93.8244"}, {"measurement": "Relative viability", "setting": "[2]; head LLC OE NAMPT/PD-L1, LZ90 1", "result": "81.6379 and 75.0704 and 92.5933"}, {"measurement": "Relative viability", "setting": "[2]; head LLC OE NAMPT/PD-L1, LZ90 4", "result": "70.2024 and 73.3725 and 88.779"}, {"measurement": "Relative viability", "setting": "[2]; head LLC OE NAMPT/PD-L1, LZ90 16", "result": "63.5687 and 62.4896 and 67.6771"}, {"measurement": "Relative viability", "setting": "[2]; head LLC OE NAMPT/PD-L1, LZ90 64", "result": "57.8886 and 54.3565 and 56.8184"}, {"measurement": "Relative viability", "setting": "[2]; head LLC OE NAMPT/PD-L1, LZ90 256", "result": "39.2756 and 40.3926 and 41.8466"}, {"measurement": "IC50", "setting": "[3]", "result": 13, "unit": "nM"}, {"measurement": "Relative inhibition (敏感性)", "setting": "[4]", "result": 0.61}, {"measurement": "Apoptotic cells (sum of both Annexin-positive quadrants)", "setting": "[5]; LZ90 15 nM", "result": "5.3 and 5.6 and 7.76"}, {"measurement": "Apoptotic cells (sum of both Annexin-positive quadrants)", "setting": "[5]; LZ90 60 nM", "result": "15.11 and 14.38 and 15.17"}, {"measurement": "Apoptotic cells (sum of both Annexin-positive quadrants)", "setting": "[5]; LZ90 240 nM", "result": "25.37 and 24.61 and 22.88"}, {"measurement": "effect on NAD+ content in tumor tissues", "setting": "[6]", "result": "reduced NAD^+ content in tumor tissues"}, {"measurement": "NAD+ in 20 mg tissue", "setting": "[6]; tumor tissue", "result": "221.603 and 139.494 and 234.768"}, {"measurement": "Relative viability", "setting": "[7]; LZ90 0.25 (nM), 0 = 100", "result": "89.7901 and 87.9705 and 96.555"}, {"measurement": "Relative viability", "setting": "[7]; LZ90 1", "result": "87.3413 and 95.1235 and 101.277"}, {"measurement": "Relative viability", "setting": "[7]; LZ90 4", "result": "85.618 and 92.9893 and 92.8571"}, {"measurement": "Relative viability", "setting": "[7]; LZ90 16", "result": "83.9984 and 83.5338 and 75.7769"}, {"measurement": "Relative viability", "setting": "[7]; LZ90 64", "result": "79.4506 and 87.9576 and 68.4293"}, {"measurement": "Relative viability", "setting": "[7]; LZ90 256", "result": "70.355 and 68.0766 and 71.9586"}, {"measurement": "Apoptotic cells (sum of both Annexin-positive quadrants)", "setting": "[8]; LZ90 15 nM", "result": "9.8 and 11.59 and 10.81"}, {"measurement": "Apoptotic cells (sum of both Annexin-positive quadrants)", "setting": "[8]; LZ90 60 nM", "result": "14.57 and 17.94 and 17.19"}, {"measurement": "Apoptotic cells (sum of both Annexin-positive quadrants)", "setting": "[8]; LZ90 240 nM", "result": "13.96 and 15.34 and 15.58"}, {"measurement": "T-cell killing of tumor cells, comparison at the same concentration", "setting": "[9]", "result": "more effective than BMS202"}, {"measurement": "stability in human liver microsome", "setting": "[10]; criteria: low CLint < 0.01, medium 0.01-0.1, high > 0.1 mL/min/mg", "result": "moderate stability in human liver microsome"}, {"measurement": "Remaining (T = 60 min)", "setting": "[10]; human liver microsome", "result": 36.8, "unit": "%"}, {"measurement": "half-life", "setting": "[10]; liver microsomes, human liver microsome", "result": 39.6, "unit": "min"}, {"measurement": "microsomal CLint", "setting": "[10]; liver microsomes, human liver microsome, read-out: CLint, in vitro (intrinsic clearance)", "result": 35, "unit": "µL/min/mg"}, {"measurement": "Cell cycle G0/G1", "setting": "[11]; LZ90 20", "result": "30.68 and 20.48 and 22.54"}, {"measurement": "Cell cycle G2/M", "setting": "[11]; LZ90 20", "result": "39.61 and 24.71 and 42.91"}, {"measurement": "Cell cycle S", "setting": "[11]; LZ90 20", "result": "43.42 and 36.35 and 37.23"}, {"measurement": "Cell cycle G0/G1", "setting": "[11]; LZ90 40", "result": "26.06 and 19.94 and 21.52"}, {"measurement": "Cell cycle G2/M", "setting": "[11]; LZ90 40", "result": "39.6 and 30.95 and 41.08"}, {"measurement": "Cell cycle S", "setting": "[11]; LZ90 40", "result": "42.06 and 38.61 and 38.5"}, {"measurement": "Cell cycle G0/G1", "setting": "[11]; LZ90 60", "result": "42.69 and 40.27 and 41.43"}, {"measurement": "Cell cycle G2/M", "setting": "[11]; LZ90 60", "result": "18.16 and 13.12 and 19.4"}, {"measurement": "Cell cycle S", "setting": "[11]; LZ90 60", "result": "43.44 and 39.68 and 39.66"}]}]}
